Starred links: 1 amine or outer side, 2 acyl side, 3 side chain; linkers in the order of their positions; H or OH if unused. Positions of bridges follow the written chain, without caps; N, C: chain ends. Non-standard residues stand in square brackets, D forms with d. Residues, ends and D or L forms follow the SMILES beside them. *: point of attachment. hPhe(3-Cl-4-CF3) = N[C@@H](CCc1ccc(C(F)(F)F)c(Cl)c1)C(=O)O; hPhe(3-F,4-CF3) = N[C@@H](CCc1ccc(C(F)(F)F)c(F)c1)C(=O)O; X88 = O=C([C@H](CCc1ccc(OC(F)(F)F)c(Cl)c1)N[*:1])[*:2]; NMePhe(4-CF3) = CN[C@@H](Cc1ccc(C(F)(F)F)cc1)C(=O)O; X34 = O=C([C@H](CCc1ccc(C(F)(F)F)nc1)N[*:1])[*:2]; X16 = Cn1ccc2ccc(CC[C@H](N[*:1])C(=O)[*:2])cc21; 3Oxa8azabicyclo(3.2.1)octane = C1CC2COCC1N2*; NMeAla(cPent) = CN[C@@H](CC1CCCC1)C(=O)O; NMeNva(5,5-F2) = CN[C@@H](CCC(F)F)C(=O)O; NMeGly(cPent) = CN[C@H](C(=O)O)C1CCCC1; NMeCha = CN[C@@H](CC1CCCCC1)C(=O)O; cisHyp = O=C(O)[C@@H]1C[C@H](O)CN1; Hyp = O=C(O)[C@@H]1C[C@@H](O)CN1; NMeChg = CN[C@H](C(=O)O)C1CCCCC1; NMeI = CC[C@H](C)[C@H](NC)C(=O)O; NMeD = CN[C@@H](CC(=O)O)C(=O)O; NMeL = CN[C@@H](CC(C)C)C(=O)O; NMeV = CN[C@H](C(=O)O)C(C)C; Trifluoroethyl = FC(F)(F)C*; d(β3hA) = C[C@@H](N)CC(=O)O; Azetidin(1-yl) = C1CN(*)C1; NMeS = CN[C@@H](CO)C(=O)O; NMeA = CN[C@@H](C)C(=O)O; Piperidide = C1CCN(*)CC1; Ac5c = NC1(C(=O)O)CCCC1; Aze = O=C(O)[C@@H]1CCN1; Ethyl(2,2-F2) = FC(F)C*; X24 = c1cncc(C*)c1; NEtG = CCNCC(=O)O; X36 = c1cc(C*)cs1; Sar = CNCC(=O)O; Propyl = CCC*
Test system: Human pancreatic cancer cell line AsPC-1
Test: Measurement of AsPC-1 cell growth inhibition (AsPC-1 CGI)
Assay type: cell-based
Details: 96 h
Procedure, shortened: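 AsPC-1 cells in 15% FBS RPMI-1640 were exposed to test compound for 96 hours at 37° C, with CellTiter-Glo as endpoint.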

SMILES | IC50 [nM]
CC[C@H](C)[C@@H]1NC(=O)[C@H](COCC(F)(F)F)N(C)C(=O)C[C@@H](C(=O)N2CCCCC2)N(C)C(=O)[C@H](C(C)C)N(C)C(=O)C2(CCCC2)NC(=O)[C@@H]2CCCN2C(=O)[C@H](CCc2ccc(C(F)(F)F)c(Cl)c2)NC(=O)CN(C)C(=O)[C@H](CC2CCCCC2)N(C)C(=O)[C@@H]2CCN2C(=O)[C@H](C)N(C)C1=O [Compound 387] ([NMeS](Trifluoroethyl)I[NMeA][Aze][NMeCha][Sar][hPhe(3-Cl-4-CF3)]P[Ac5c][NMeV][NMeD]-Piperidide; lactam N-11) | 100 to 500
CC[C@H](C)[C@@H]1NC(=O)[C@H](CC(C)C)N(C)C(=O)C[C@@H](C(=O)N2CCC2)N(C)C(=O)[C@H](C2CCCC2)N(C)C(=O)C2(CCCC2)NC(=O)[C@@H]2CCCN2C(=O)[C@H](CCc2ccc(C(F)(F)F)c(Cl)c2)NC(=O)CN(CC)C(=O)[C@H](CC2CCCCC2)N(C)C(=O)[C@@H]2CCN2C(=O)[C@H](C)N(C)C1=O [Compound 726] ([NMeL]I[NMeA][Aze][NMeCha][NEtG][hPhe(3-Cl-4-CF3)]P[Ac5c][NMeGly(cPent)][NMeD]-{Azetidin(1-yl)}; lactam N-11) | 20 to 50
CC[C@H](C)[C@@H]1NC(=O)[C@H](CC(C)C)N(C)C(=O)C[C@@H](C(=O)N2CCCCC2)N(C)C(=O)[C@H](C2CCCCC2)N(C)C(=O)C2(CCCC2)NC(=O)[C@@H]2C[C@@H](OCc3ccsc3)CN2C(=O)[C@H](CCc2ccc(C(F)(F)F)c(Cl)c2)NC(=O)CN(C)C(=O)[C@H](CC2CCCCC2)N(C)C(=O)CN(C)C(=O)CN(C)C1=O [Compound 2124] ([NMeL]I[Sar][Sar][NMeCha][Sar][hPhe(3-Cl-4-CF3)][Hyp](X36)[Ac5c][NMeChg][NMeD]-Piperidide; lactam N-11) | 100 to 500
CC[C@H](C)[C@@H]1NC(=O)[C@H](CC(C)C)N(C)C(=O)C[C@@H](C(=O)N2CCCCC2)N(C)C(=O)[C@H](C2CCCC2)N(C)C(=O)C2(CCCC2)NC(=O)[C@@H]2CCCN2C(=O)[C@H](CCc2ccc(OC(F)(F)F)c(Cl)c2)NC(=O)CN(C)C(=O)[C@H](CC2CCCCC2)N(C)C(=O)[C@@H]2CCN2C(=O)[C@H](C)N(C)C1=O [Compound 2057] ([NMeL]I[NMeA][Aze][NMeCha][Sar][X88]P[Ac5c][NMeGly(cPent)][NMeD]-Piperidide; lactam N-11) | 50 to 100
CC[C@H](C)[C@@H]1NC(=O)[C@H](CC(C)C)N(C)C(=O)C[C@@H](C(=O)N2CCCCC2)N(C)C(=O)[C@H](C2CCCC2)N(C)C(=O)C2(CCCC2)NC(=O)[C@@H]2CCCN2C(=O)[C@H](CCc2ccc(C(F)(F)F)nc2)NC(=O)CN(C)C(=O)[C@H](CC2CCCCC2)N(C)C(=O)[C@@H]2CCN2C(=O)[C@H](C)N(C)C1=O [Compound 2078] ([NMeL]I[NMeA][Aze][NMeCha][Sar][X34]P[Ac5c][NMeGly(cPent)][NMeD]-Piperidide; lactam N-11) | 100 to 500
CC[C@H](C)[C@@H]1NC(=O)[C@H](CC(C)C)N(C)C(=O)C[C@@H](C(=O)N2CCCCC2)N(C)C(=O)[C@H](C2CCCCC2)N(C)C(=O)C2(CCCC2)NC(=O)[C@@H]2C[C@H](OCc3cccnc3)CN2C(=O)[C@H](CCc2ccc(C(F)(F)F)c(Cl)c2)NC(=O)CN(C)C(=O)[C@H](CC2CCCCC2)N(C)C(=O)CN(C)C(=O)CN(C)C1=O [Compound 2120] ([NMeL]I[Sar][Sar][NMeCha][Sar][hPhe(3-Cl-4-CF3)][cisHyp](X24)[Ac5c][NMeChg][NMeD]-Piperidide; lactam N-11) | 100 to 500
CC[C@H](C)[C@@H]1NC(=O)[C@H](CC(C)C)N(C)C(=O)C[C@@H](C(=O)N2CCCCC2)N(C)C(=O)[C@H](C2CCCCC2)N(C)C(=O)C2(CCCC2)NC(=O)[C@H](CCC(F)F)N(C)C(=O)[C@H](CCc2ccc(C(F)(F)F)c(Cl)c2)NC(=O)CN(C)C(=O)[C@H](CC2CCCCC2)N(C)C(=O)CN(C)C(=O)CN(C)C1=O [Compound 523] ([NMeL]I[Sar][Sar][NMeCha][Sar][hPhe(3-Cl-4-CF3)][NMeNva(5,5-F2)][Ac5c][NMeChg][NMeD]-Piperidide; lactam N-11) | 100 to 500
CC[C@H](C)[C@@H]1NC(=O)[C@H](CC(C)C)N(C)C(=O)C[C@@H](C(=O)N2CCCCC2)N(C)C(=O)[C@H](C2CCCCC2)N(C)C(=O)C2(CCCC2)NC(=O)[C@@H]2C[C@@H](OCc3cccnc3)CN2C(=O)[C@H](CCc2ccc(C(F)(F)F)c(Cl)c2)NC(=O)CN(C)C(=O)[C@H](CC2CCCCC2)N(C)C(=O)CN(C)C(=O)CN(C)C1=O [Compound 2121] ([NMeL]I[Sar][Sar][NMeCha][Sar][hPhe(3-Cl-4-CF3)][Hyp](X24)[Ac5c][NMeChg][NMeD]-Piperidide; lactam N-11) | 50 to 100
CC[C@H](C)[C@@H]1NC(=O)[C@H](CC(C)C)N(C)C(=O)C[C@@H](C(=O)N2CCCCC2)N(C)C(=O)[C@H]([C@@H](C)CC)N(C)C(=O)C2(CCCC2)NC(=O)[C@@H]2CCCN2C(=O)[C@H](CCc2ccc(C(F)(F)F)c(F)c2)NC(=O)CN(C)C(=O)[C@H](C2CCCC2)N(C)C(=O)[C@@H]2CCN2C(=O)[C@H](C)N(C)C1=O [Compound 674] ([NMeL]I[NMeA][Aze][NMeGly(cPent)][Sar][hPhe(3-F,4-CF3)]P[Ac5c][NMeI][NMeD]-Piperidide; lactam N-11) | 50 to 100
CCCOC[C@H]1C(=O)N(C)CC(=O)N[C@@H](CCc2ccc(C(F)(F)F)c(Cl)c2)C(=O)N2CCC[C@H]2C(=O)NC2(CCCC2)C(=O)N(C)[C@@H](C2CCCC2)C(=O)N(C)[C@H](C(=O)N2C3CCC2COC3)CC(=O)N(C)[C@@H](CC2CCCC2)C(=O)N[C@@H]([C@@H](C)CC)C(=O)N(C)[C@@H](C)C(=O)N2CC[C@H]2C(=O)N1C [Compound 1251] ([NMeAla(cPent)]I[NMeA][Aze][NMeS](Propyl)[Sar][hPhe(3-Cl-4-CF3)]P[Ac5c][NMeGly(cPent)][NMeD]-{3Oxa8azabicyclo(3.2.1)octane}; lactam N-11) | 20 to 50
CC[C@H](C)[C@@H]1NC(=O)[C@H](CC(C)C)N(C)C(=O)C[C@@H](C(=O)N2CCCCC2)N(C)C(=O)[C@H](C2CCCC2)N(C)C(=O)C2(CCCC2)NC(=O)[C@@H]2CCCN2C(=O)[C@H](CCc2ccc3ccn(C)c3c2)NC(=O)CN(C)C(=O)[C@H](CC2CCCCC2)N(C)C(=O)[C@@H]2CCN2C(=O)[C@H](C)N(C)C1=O [Compound 2065] ([NMeL]I[NMeA][Aze][NMeCha][Sar][X16]P[Ac5c][NMeGly(cPent)][NMeD]-Piperidide; lactam N-11) | 100 to 500
CC[C@H](C)[C@@H]1NC(=O)[C@H](C)N(C)C(=O)C[C@@H](C)NC(=O)[C@H](C2CCCC2)N(C)C(=O)C2(CCCC2)NC(=O)[C@@H]2CCCN2C(=O)[C@H](CCc2ccc(C(F)(F)F)c(Cl)c2)NC(=O)CN(C)C(=O)[C@H](Cc2ccc(C(F)(F)F)cc2)N(C)C(=O)[C@@H]2CCCN2C(=O)CN(C)C1=O [Compound 749] (cyclo([Ac5c][NMeGly(cPent)][d(β3hA)][NMeA]I[Sar]P[NMePhe(4-CF3)][Sar][hPhe(3-Cl-4-CF3)]P)) | 100 to 500
CC[C@H](C)[C@@H]1NC(=O)[C@H](CC(C)C)N(C)C(=O)C[C@@H](C(=O)N2CCCCC2)N(C)C(=O)[C@H](C2CCCCC2)N(C)C(=O)C2(CCCC2)NC(=O)[C@@H]2C[C@@H](OCC(F)F)CN2C(=O)[C@H](CCc2ccc(C(F)(F)F)c(Cl)c2)NC(=O)CN(C)C(=O)[C@H](CC2CCCCC2)N(C)C(=O)CN(C)C(=O)CN(C)C1=O [Compound 2119] ([NMeL]I[Sar][Sar][NMeCha][Sar][hPhe(3-Cl-4-CF3)][Hyp](Ethyl(2,2-F2))[Ac5c][NMeChg][NMeD]-Piperidide; lactam N-11) | 20 to 50

Reference: patent US12371454B2, “Cyclic peptide compound having Kras inhibitory action” (priority 2019, dated 2025)
